Legend:
[1] = system: reconstructed human epidermis (RhE) model (SkinEthic-RHE); test: Skin irritation test, reconstructed human epidermis model, MTT cell viability; format: cell-based
Procedure: A skin irritation test was performed in accordance with OECD Test Guidelines (No. 439), and SKINETHIC SKIN IRRITATION TEST, which is a TEST METHOD FOR THE PREDICTION OF ACUTE SKIN IRRITATION OF CHEMICALS and is a protocol published by the European Centre for the Validation of Alternative Methods (ECVAM). […] The cell viability of the RhE model was measured by an MTT method. In the MTT method, the cell viability is measured by quantitatively determining blue formazan utilizing a property that MTT (3-(4,5-dimethylthiazol-2-yl)-2,5-diphenyltetrazolium bromide, thiazolyl blue), which is a vital staining dye, is reduced to blue formazan by enzymatic reaction of viable cells. […]
After exposing the test sample for 42 minutes, the test sample was immediately removed from the epidermis model by a washing operation and cultured in fresh growth medium for an additional 42 hours. […] Thereafter, the epidermis model was immersed in isopropanol for 2 hours to extract blue formazan in the epidermis model, and the absorbance at 570 nm of the extraction liquid was measured with a microplate reader. The same treatment was performed on the epidermis model exposed to the negative control and the positive control to measure the absorbance. […]

[2] = system: Normal human epidermal keratinocytes; test: Microarray test of gene expression (DNA Chip Genopal); format: cell-based; settings: for ATP5F1 (internal standard) gene expression, Average / CDH1 (E-cadherin) gene expression, Average / CLDN1 (claudin 1) gene expression, Average / DSC1 (desmocollin 1) gene expression, Average / DSG1 (desmoglein 1) gene expression, Average / EDN1 (endothelin 1) gene expression, Average / FN1 (fibronectin) gene expression, Average / GUSB (internal standard) gene expression, Average / HAS3 (hyaluronan synthase) gene expression, Average / IVL (involucrin) gene expression, Average / KLK5 (kallikrein 5) gene expression, Average / KLK7 (kallikrein 7) gene expression, Average / KRT1 (keratin 1) gene expression, Average / KRT10 (keratin 10) gene expression, Average / PPIA (Cyclophilin) (internal standard) gene expression, Average / PTGES (prostaglandin E synthetase) gene expression, Average / PTGS2 (COX-2) (cyclooxygenase 2) gene expression, Average / RPLPO (internal standard) gene expression, Average / SPINK5 (LEKTI1) (serine protease inhibitor) gene expression, Average / SPRR1B (cornified envelope constituent protein) gene expression, Average / TGM1 (transglutaminase 1) gene expression, Average: 24 h, ratio, control as 1
Procedure: Normal human epidermal keratinocytes were seeded on 6-well plates at the cell density of 1.5×10^5 cells/well using a HuMedia-KG2 medium. After culturing for 24 hours, the medium was replaced with 3 mL of a HuMedia-KB2 medium comprising AOH at the concentration of 0, 30, 100, and 300 μg/mL. After the replacement, culturing was performed for 24 hours, and the cells were immersed in a QIAzol reagent and lysed. RNA purified using an miRNeasy Mini Kit (QIAGEN) was recovered from the lysate, and a DNA microarray was performed using an mRNA expression analysis chip (DNA Chip Genopal (registered trademark)). The obtained results were analyzed to represent the expression of various genes as a ratio with a correction value of the control as 1, and a significant difference test was performed using the Student's t-test (significance level p of 5%).
In Table 2, it can be determined that when the value is larger than 1, gene expression is increased, and when the p value is smaller than 0.05, there is a significant change with respect to the control (indicated by * in the table). AOH treatment varied the expression of some genes in a concentration-dependent manner.

[3] = In vitro phototoxicity test (OECD TG432); format: cell-based
Human patch test = settings: in vivo
[4] = AOH treatment, concentration not given

gene expression of cyclooxygenase (PTGS2), change in words [2, 4]: significant decrease | gene expression of prostaglandin E synthetase (PTGES), change in words [2, 4]: significant decrease | gene expression of transglutaminase 1 (TGM1), change in words [2, 4]: significant increase
SMILES: O=c1[nH]c2nn[nH]c(=O)c2[nH]1 [AOH, 3H-imidazo[4,5-d][1,2,3]triazine-4,6(5H,7H)-dione]
cell viability of the skin model ([1]; 42 min exposure, 42 h post-culture, MTT, PBS (−) negative control as 100%): 100% | skin irritation determination ([1]; RhE model, OECD TG 439): non-irritating | ATP5F1 (internal standard) gene expression, Average ([2]; 30 μg/mL): 1.00 | CDH1 (E-cadherin) gene expression, Average ([2]; 30 μg/mL): 1.11 | CLDN1 (claudin 1) gene expression, Average ([2]; 30 μg/mL): 1.19 | DSC1 (desmocollin 1) gene expression, Average ([2]; 30 μg/mL): 1.26 | DSG1 (desmoglein 1) gene expression, Average ([2]; 30 μg/mL): 1.09 | EDN1 (endothelin 1) gene expression, Average ([2]; 30 μg/mL): 1.24 | FN1 (fibronectin) gene expression, Average ([2]; 30 μg/mL): 1.12 | GUSB (internal standard) gene expression, Average ([2]; 30 μg/mL): 0.97 | HAS3 (hyaluronan synthase) gene expression, Average ([2]; 30 μg/mL): 1.09 | IVL (involucrin) gene expression, Average ([2]; 30 μg/mL): 1.35 | KLK5 (kallikrein 5) gene expression, Average ([2]; 30 μg/mL): 1.11 | KLK7 (kallikrein 7) gene expression, Average ([2]; 30 μg/mL): 1.12 | KRT1 (keratin 1) gene expression, Average ([2]; 30 μg/mL): 1.46 | KRT10 (keratin 10) gene expression, Average ([2]; 30 μg/mL): 1.19 | PPIA (Cyclophilin) (internal standard) gene expression, Average ([2]; 30 μg/mL): 0.98 | PTGES (prostaglandin E synthetase) gene expression, Average ([2]; 30 μg/mL): 0.77 | PTGS2 (COX-2) (cyclooxygenase 2) gene expression, Average ([2]; 30 μg/mL): 0.90 | RPLPO (internal standard) gene expression, Average ([2]; 30 μg/mL): 1.03 | SPINK5 (LEKTI1) (serine protease inhibitor) gene expression, Average ([2]; 30 μg/mL): 1.15 | SPRR1B (cornified envelope constituent protein) gene expression, Average ([2]; 30 μg/mL): 1.27 | TGM1 (transglutaminase 1) gene expression, Average ([2]; 30 μg/mL): 1.16 | ATP5F1 (internal standard) gene expression, Average ([2]; 100 μg/mL): 1.02 | CDH1 (E-cadherin) gene expression, Average ([2]; 100 μg/mL): 1.09 | CLDN1 (claudin 1) gene expression, Average ([2]; 100 μg/mL): 1.49 | DSC1 (desmocollin 1) gene expression, Average ([2]; 100 μg/mL): 1.28 | DSG1 (desmoglein 1) gene expression, Average ([2]; 100 μg/mL): 1.13 | EDN1 (endothelin 1) gene expression, Average ([2]; 100 μg/mL): 1.39 | FN1 (fibronectin) gene expression, Average ([2]; 100 μg/mL): 1.15 | GUSB (internal standard) gene expression, Average ([2]; 100 μg/mL): 1.00 | HAS3 (hyaluronan synthase) gene expression, Average ([2]; 100 μg/mL): 1.27 | IVL (involucrin) gene expression, Average ([2]; 100 μg/mL): 1.49 | KLK5 (kallikrein 5) gene expression, Average ([2]; 100 μg/mL): 1.16 | KLK7 (kallikrein 7) gene expression, Average ([2]; 100 μg/mL): 1.24 | KRT1 (keratin 1) gene expression, Average ([2]; 100 μg/mL): 1.60 | KRT10 (keratin 10) gene expression, Average ([2]; 100 μg/mL): 1.33 | PPIA (Cyclophilin) (internal standard) gene expression, Average ([2]; 100 μg/mL): 0.96 | PTGES (prostaglandin E synthetase) gene expression, Average ([2]; 100 μg/mL): 0.79 | PTGS2 (COX-2) (cyclooxygenase 2) gene expression, Average ([2]; 100 μg/mL): 0.93 | RPLPO (internal standard) gene expression, Average ([2]; 100 μg/mL): 1.06 | SPINK5 (LEKTI1) (serine protease inhibitor) gene expression, Average ([2]; 100 μg/mL): 1.28 | SPRR1B (cornified envelope constituent protein) gene expression, Average ([2]; 100 μg/mL): 1.42 | TGM1 (transglutaminase 1) gene expression, Average ([2]; 100 μg/mL): 1.29 | ATP5F1 (internal standard) gene expression, Average ([2]; 300 μg/mL): 1.01 | CDH1 (E-cadherin) gene expression, Average ([2]; 300 μg/mL): 1.16 | CLDN1 (claudin 1) gene expression, Average ([2]; 300 μg/mL): 1.43 | DSC1 (desmocollin 1) gene expression, Average ([2]; 300 μg/mL): 1.59 | DSG1 (desmoglein 1) gene expression, Average ([2]; 300 μg/mL): 1.15 | EDN1 (endothelin 1) gene expression, Average ([2]; 300 μg/mL): 1.75 | FN1 (fibronectin) gene expression, Average ([2]; 300 μg/mL): 1.22 | GUSB (internal standard) gene expression, Average ([2]; 300 μg/mL): 0.97 | HAS3 (hyaluronan synthase) gene expression, Average ([2]; 300 μg/mL): 1.60 | IVL (involucrin) gene expression, Average ([2]; 300 μg/mL): 1.75 | KLK5 (kallikrein 5) gene expression, Average ([2]; 300 μg/mL): 1.24 | KLK7 (kallikrein 7) gene expression, Average ([2]; 300 μg/mL): 1.17 | KRT1 (keratin 1) gene expression, Average ([2]; 300 μg/mL): 2.07 | KRT10 (keratin 10) gene expression, Average ([2]; 300 μg/mL): 1.44 | PPIA (Cyclophilin) (internal standard) gene expression, Average ([2]; 300 μg/mL): 0.99 | PTGES (prostaglandin E synthetase) gene expression, Average ([2]; 300 μg/mL): 0.56 | PTGS2 (COX-2) (cyclooxygenase 2) gene expression, Average ([2]; 300 μg/mL): 0.79 | RPLPO (internal standard) gene expression, Average ([2]; 300 μg/mL): 1.08 | SPINK5 (LEKTI1) (serine protease inhibitor) gene expression, Average ([2]; 300 μg/mL): 1.38 | SPRR1B (cornified envelope constituent protein) gene expression, Average ([2]; 300 μg/mL): 1.60 | TGM1 (transglutaminase 1) gene expression, Average ([2]; 300 μg/mL): 1.57 | gene expression of E-cadherin (CDH1), change in words [2, 4]: significant increase | gene expression of SPRR1B, change in words [2, 4]: significant increase | gene expression of claudin 1 (CLDN1), change in words [2, 4]: significant increase | gene expression of desmocollin 1 (DSC1), change in words [2, 4]: significant increase | gene expression of desmoglein 1 (DSG1), change in words [2, 4]: significant increase | gene expression of endothelin 1 (EDN1), change in words [2, 4]: significant increase | gene expression of fibronectin (FN1), change in words [2, 4]: slight increase | gene expression of hyaluronan synthase (HAS3), change in words [2, 4]: significant increase | gene expression of involucrin (IVL), change in words [2, 4]: significant increase | gene expression of kallikrein 5 (KLK5), change in words [2, 4]: significant increase | gene expression of kallikrein 7 (KLK7), change in words [2, 4]: significant increase | gene expression of keratin 1 (KRT1), change in words [2, 4]: significant increase | gene expression of keratin 10 (KRT10), change in words [2, 4]: significant increase | gene expression of serine protease inhibitor (SPIMK5), change in words [2, 4]: significant increase | toxicity in in vitro phototoxicity test [3]: toxicity was not recognized | toxicity in human patch test (Human patch test): toxicity was not recognized

— US12527801B2, “Cell activator of animal cell” (Vitamin C60 BioResearch Corporation, priority 2019, dated 2026)
